Measured values published in EP0150787A2, “Compound having antibronchopneumopathic activity, process for its preparation and pharmaceutical compositions containing it” (PULITZER ITALIANA S.p.A., priority 1984, dated 1985).
Read-outs that look alike come from different tables or passages of the source.

What was measured:
[1] = Acute toxicity, oral route, method of Litchfield and Wilcoxon; settings: in vivo, os
From the text: The acute toxicity of PU 163 has been determined in the mouse and in the rat by the oral route accor ding to the method of Litchfield and Wilcoxon (J. Pharm. Exp. Therap. 1949, 96, 99).

trachea ciliate cells = assay: Ciliary motility in the dog's trachea in vitro (transit speed of a charcoal bolus); assay type: cell-based; settings: for SPEED OF CHARCOAL PARTICLES 5 Minutes mm/min. x̄ ± ES / SPEED OF CHARCOAL PARTICLES 10 Minutes mm/min x̄ ± ES / SPEED OF CHARCOAL PARTICLES 20 Minutes mm/min. x̄ ± ES / activation at 100 µg/mL: 10^-4 g/ml; for activation at 100 µg/mL: Canis lupus familiaris; for SPEED OF CHARCOAL PARTICLES Basal mm/min. x̄ ± ES: group later treated with 10^-4 g/ml
From the text: The mucolytic activity of many products is due in that they induce an increase of motility in the trachea ciliate cells.
The method hereinafter described allows to assess "in vitro" if a compound increases, or not, the motility of said cells. The method is based on the measurement of the transit speed of a charcoal bolus in a section of trachea.
The method used is that described by J.E. Lightowler and N.H. Lightowler (Arch. Int. Pharmacodyn. 189, 53-58, 1971) and uses an apparatus similar to that described by T. Dalhamn (Acta Physiol. Scand. Suppl. 123, 1956).

rat = assay: Bronchosecretogogue activity (Mawatari test, bronchial elimination of sodium fluorescein); assay type: in vivo; settings: 50 mg/kg i.p. (table head; text: oral route), percent increase of bronchial elimination
From the text: The bronchosecretogogue activity of PU 163 and, as a comparison, of Ambroxol has been determined in the rat using the method described by Mawatari ("Experimental Studies on the Expectorant Action of Several Drugs", Kagoshima Daigaku Igaku Zasshi, 27, 561, 1976). […] After the animals'sacrifice, the evaluation of the amound of sodium fluorescein present at the bronchial level has been carried out. The results obtained, reported in the Table 3, are expressed as percent increase of the bronchial elimination of sodium fluorescein of the groups treated with Ambroxol and PU 163 in comparison with a control group.

alveolar surfactant = assay: Activity on the alveolar surfactant (static volume-pulmonary pressure curves); assay type: in vivo; settings: rat, 50 mg/kg p.o.
Experimental: This test allow to verify if a compound can modi fy the surfaces of lung alveoli, as there are pathological conditions in which a superficial firm is produced in the alveoli which, as time goes on, can produce foam in the bronchi, making the respiration difficult. In order to assess this kind of activity, the method described by Curty P.C. (Arzneim. Forsch. Drug. Res., 24, 847, 1974) is used. According to said method the volume and the pressure after insufflation in the rat's lung, are measured. […] After sacrifice, and after the trachea incan nulation, the respiratory apparatus has been extracted from the thoracic cavity and the static cur ves of volume-pulmonary pressure.

[2] = tested on: pulmonary emphysema induced in the guinea pig; assay: Pulmonary emphysema induced by intratracheal porcine pancreatic elastase; assay type: in vivo; settings: 50 mg/kg i.p. 1 hour after the elastase injection
Experimental: The ability of PU 163 of antagonizing the pulmonary emphysema induced in the guinea pig by intratracheal injection of 0.1 mg of porcine pancrea tic elastase has been evaluated in comparison with Ambroxol, according to the method described by Stone P.J. et al. (Am. Rev. Resp. Dis. 124/1, 56-59; 1981). Both compounds have been administered by the i.p. route at the equiponderant dose of 50 mg/kg 1 hour after the elastase injection.

[3] = tested on: chronic bronchitis induced by inhalation of SO in the rat; assay: Chronic bronchitis induced by SO2 inhalation; assay type: in vivo; settings: 50 mg/kg by gastric tube
From the text: The action of PU 163 in comparison with Ambroxol on the chronic bronchitis induced by inhalation of SO in the rat has been evaluated according to the method described by Quevauvillier e coll. (Therapie, XXII; 185-193; 1967). […] The efficacy of […] been evaluated in function of the regression degree of the pulmonary lesions induced by […] inhalation.

[4] = Pharmacokinetics and organ distribution by HPLC; assay type: in vivo; settings: rat, oral route, equimolar dose corresponding to 50 mg/kg of Ambroxol base
Experimental: The pharmacokynetics behaviour and the distribu tion in the organs of PU 163, in comparison to Ambroxol, has been determined in the rat after ad ministration by the oral route of equimolar doses, corresponding to 50 mg/kg of Ambroxol base.

elastase = assay: Elastase inhibition (method of R.M. Senior); assay type: biochemical
From the text: The inhibiting activity of PU 163 and of Ambroxol on elastase has been measured according to the method described by R.M. Senior (Plenum Press. New York; 249-254; 1977).

[5] = 5 min, 5 minutes, read-out: SPEED OF CHARCOAL PARTICLES 5 Minutes % Δ vs.Bas. x̄ ± ES
[6] = 10 min, 10 minutes, * p <0.05, read-out: SPEED OF CHARCOAL PARTICLES 10 Minutes % Δ vs.Bas. x̄ ± ES
[7] = 20 min, 20 minutes, ** p <0.01, read-out: SPEED OF CHARCOAL PARTICLES 20 Minutes % Δ vs.Bas. x̄ ± ES

| Compound | LD50 ([1]; mouse) [mg/kg] | LD50 ([1]; rat) [mg/kg] | SPEED OF CHARCOAL PARTICLES 5 Minutes mm/min. x̄ ± ES (trachea ciliate cells; 5 minutes) [mm/min.] | SPEED OF CHARCOAL PARTICLES 10 Minutes mm/min x̄ ± ES (trachea ciliate cells; 10 minutes) [mm/min] | SPEED OF CHARCOAL PARTICLES 20 Minutes mm/min. x̄ ± ES (trachea ciliate cells; 20 minutes) [mm/min.] | activation at 100 µg/mL (trachea ciliate cells; [5]) [%] | activation at 100 µg/mL (trachea ciliate cells; [6]) [%] | activation at 100 µg/mL (trachea ciliate cells; [7]) [%] | SPEED OF CHARCOAL PARTICLES Basal mm/min. x̄ ± ES (trachea ciliate cells) [mm/min.] | SODIUM FLUORESCEIN % vs. control (rat) [%] | Internal pulmonary pressure (cm. H2O) (alveolar surfactant; de-insufflation, 0.5 cm^3) | Internal pulmonary pressure (cm. H2O) (alveolar surfactant; de-insufflation, 1 cm^3) | Internal pulmonary pressure (cm. H2O) (alveolar surfactant; de-insufflation, 1.5 cm^3) | Internal pulmonary pressure (cm. H2O) (alveolar surfactant; de-insufflation, 2 cm^3) | Internal pulmonary pressure (cm. H2O) (alveolar surfactant; de-insufflation, 2.5 cm^3) | Internal pulmonary pressure (cm. H2O) (alveolar surfactant; de-insufflation, 3 cm^3) | Internal pulmonary pressure (cm. H2O) (alveolar surfactant; insufflation, 0.5 cm^3) | Internal pulmonary pressure (cm. H2O) (alveolar surfactant; insufflation, 1 cm^3) | Internal pulmonary pressure (cm. H2O) (alveolar surfactant; insufflation, 1.5 cm^3) | Internal pulmonary pressure (cm. H2O) (alveolar surfactant; insufflation, 2 cm^3) | also measured |
| --- | --- | --- | --- | --- | --- | --- | --- | --- | --- | --- | --- | --- | --- | --- | --- | --- | --- | --- | --- | --- | --- |
| O=C(Nc1c(Br)cc(Br)cc1CN[C@H]1CC[C@H](O)CC1)c1cccs1 [PU 163, 4-/ /(2-(2-thenoyl)-amino-3,5-dibromophenyl)-methyl/amino/cy-clohexanol] | > 2500 | > 5000 | 8.7 ±2.82 | 10.2 ±2.02 | 11.5 ±2.38 | 24.3 ± 7.8 | 45.7 | 64.3 | 7.00 ±1.40 | 39.3 | 0.35 | 1.4 | 2.5 | 3.9 | 5.2 | 6.75 | 2.2 | 3.8 | 5.35 | 6.5 | Internal pulmonary pressure (cm. H2O) (alveolar surfactant; insufflation, 2.5 cm^3): 7.6 cm. H2O; Internal pulmonary pressure (cm. H2O) (alveolar surfactant; insufflation, 3 cm^3): 8.45 cm. H2O; Internal pulmonary pressure (cm. H2O) (alveolar surfactant; insufflation, 3.5 cm^3): 9 cm. H2O; activity of reducing emphysema [2]: high activity of reducing emphysema; percent regression (lesions degrees) [3]: 62%; concentrations in the organs (pulmonary level) [4]: larger amounts of Ambroxol at the pulmonary level; plasma concentrations as Ambroxol ([4]; compared with Ambroxol treated group): detected at prolonged times |
| Nc1c(Br)cc(Br)cc1CN[C@H]1CC[C@H](O)CC1 [Ambroxol, 4-/ /(2-amino-3,5-dibromophenyl)-methyl/amino/cyclohexanol, reference compound] | > 2500 | > 5000 | 8.2 ±2.12 | 9.5 ±1.62 | 10.2 ±2.31 | 28.1 ± 3.54 | 57.6 | 59.4 | 6.4 ±1.30 | 32.1 | 0.25 | 1.1 | 2.3 | 3.3 | 4.6 | 6.1 | 2.45 | 4.1 | 5.6 | 6.9 | Internal pulmonary pressure (cm. H2O) (alveolar surfactant; insufflation, 2.5 cm^3): 7.9 cm. H2O; Internal pulmonary pressure (cm. H2O) (alveolar surfactant; insufflation, 3 cm^3): 8.7 cm. H2O; Internal pulmonary pressure (cm. H2O) (alveolar surfactant; insufflation, 3.5 cm^3): 9.3 cm. H2O; percent regression (lesions degrees) [3]: 38%; inhibiting activity on elastase (elastase): practically inactive |
